{"source": "patent US20220160617A1", "about": "“COMPOSITIONS AND METHODS FOR IMPROVING SKIN HEALTH AND FOR THE TREATMENT AND PREVENTION OF DISEASES, DISORDERS AND CONDITIONS ASSOCIATED WITH PATHOGENIC MICROBES” (DermBiont, Inc., priority 2019, published 2022)", "note": "Where a SMILES comes first, the peptide text is derived from it."}
{"tested_on": "fungal or bacterial pathogens", "type": "cell-based", "conditions": "not given", "units": {"Concentration Range of Efficacy": "mM"}}
{"molecule": "O=[N+]([O-])O", "note": "[Nitrate]", "Concentration Range of Efficacy": "0.1 to 1"}
{"molecule": "O=NO", "note": "[Nitrite]", "Concentration Range of Efficacy": "0.1 to 1"}
{"tested_on": "fungal or bacterial pathogens", "type": "cell-based", "conditions": "components for enhancing function of human-derived Janthinobacterium lividum", "units": {"Concentration Range of Efficacy": "mM"}}
{"molecule": "OC[C@H]1O[C@@H]2O[C@H]3[C@H](O)[C@@H](O)[C@@H](O[C@H]4[C@H](O)[C@@H](O)[C@@H](O[C@H]5[C@H](O)[C@@H](O)[C@@H](O[C@H]6[C@H](O)[C@@H](O)[C@@H](O[C@H]7[C@H](O)[C@@H](O)[C@@H](O[C@H]8[C@H](O)[C@@H](O)[C@@H](O[C@H]1[C@H](O)[C@H]2O)O[C@@H]8CO)O[C@@H]7CO)O[C@@H]6CO)O[C@@H]5CO)O[C@@H]4CO)O[C@@H]3CO", "note": "[β-Cyclodextrin]", "Concentration Range of Efficacy": "1 to 5"}
{"molecule": "OC[C@H]1O[C@H](OC[C@H]2OC(O)(CO)[C@@H](O)[C@@H]2O)[C@H](O)[C@@H](O)[C@@H]1O", "note": "(stereo partly shown) [Palatinose]", "Concentration Range of Efficacy": "1 to 5"}
{"molecule": "Maltotriose", "Concentration Range of Efficacy": "2 to 20"}
{"molecule": "OC[C@@H](O)[C@@H](O)CO", "note": "[i-Erythritol]", "Concentration Range of Efficacy": "1 to 5"}
{"molecule": "CC(O)C(N)=O", "note": "(racemic) [D,L-Lactamide]", "Concentration Range of Efficacy": "0.1 to 1"}
{"molecule": "OC[C@H]1O[C@@H]2O[C@H]3[C@H](O)[C@@H](O)[C@@H](O[C@H]4[C@H](O)[C@@H](O)[C@@H](O[C@H]5[C@H](O)[C@@H](O)[C@@H](O[C@H]6[C@H](O)[C@@H](O)[C@@H](O[C@H]7[C@H](O)[C@@H](O)[C@@H](O[C@H]8[C@H](O)[C@@H](O)[C@@H](O[C@H]9[C@H](O)[C@@H](O)[C@@H](O[C@H]1[C@H](O)[C@H]2O)O[C@@H]9CO)O[C@@H]8CO)O[C@@H]7CO)O[C@@H]6CO)O[C@@H]5CO)O[C@@H]4CO)O[C@@H]3CO", "note": "[g-Cyclodextrin]", "Concentration Range of Efficacy": "1 to 5"}
{"molecule": "O=C[C@@H](O)[C@H](O[C@@H]1O[C@H](CO)[C@H](O)[C@H](O)[C@H]1O)[C@H](O)CO", "note": "[3-0-β-D-Galactopyranosyl-D Arabinose]", "Concentration Range of Efficacy": "1 to 5"}
{"molecule": "CO[C@@H]1O[C@H](C(=O)O)[C@@H](O)[C@H](O)[C@H]1O", "note": "[β-Methyl-D-Glucuronic Acid]", "Concentration Range of Efficacy": "1 to 5"}
{"molecule": "O=C(CO)[C@@H](O[C@H]1O[C@H](CO)[C@@H](O)[C@H](O)[C@H]1O)[C@H](O)[C@H](O)CO", "note": "[Turanose]", "Concentration Range of Efficacy": "1 to 5"}
{"molecule": "dextrin", "Concentration Range of Efficacy": "1 to 5"}
{"molecule": "CO[C@@H]1O[C@H](CO)[C@@H](O)[C@H](O)[C@H]1O", "note": "[β-Methyl-D-Galactoside]", "Concentration Range of Efficacy": "1 to 5"}
{"molecule": "Inulin", "Concentration Range of Efficacy": "1 to 5"}
{"molecule": "Mannan", "Concentration Range of Efficacy": "1 to 5"}
{"molecule": "O=C1CCC(C(=O)O)O1", "note": "(stereo not drawn) [α-Hydroxy Glutaric Acid-g-Lactone]", "Concentration Range of Efficacy": "2 to 20"}
{"molecule": "Pectin", "Concentration Range of Efficacy": "1 to 5"}
{"molecule": "NC(N)=O", "note": "[Urea]", "Concentration Range of Efficacy": "0.1 to 1"}
{"molecule": "O=P(O)(O)OCC(O)CO", "note": "(racemic) [D,L-α-Glycerol Phosphate]", "Concentration Range of Efficacy": "2 to 20"}
{"molecule": "Chondroitin Sulfate C", "Concentration Range of Efficacy": "1 to 5"}
{"molecule": "O=C(O)[C@H]1OC(O)[C@H](O)[C@@H](O)[C@@H]1O", "note": "(stereo partly drawn) [D-Glucoronic Acid]", "Concentration Range of Efficacy": "2 to 20"}
{"molecule": "Laminarin", "Concentration Range of Efficacy": "1 to 5"}
{"molecule": "O=C(O)[C@@H](O)[C@H](O)C(=O)O", "note": "[D-Tartaric acid]", "Concentration Range of Efficacy": "1 to 5"}
{"molecule": "OC[C@@]12OC[C@@H](O1)[C@@H](O)[C@@H](O)[C@@H]2O", "note": "[Sedoheptulosan]", "Concentration Range of Efficacy": "1 to 5"}
{"molecule": "Nc1ncnc2c1ncn2C1CC(O)C(CO)O1", "note": "(stereo not shown) [2-Deoxy Adenosine]", "Concentration Range of Efficacy": "2 to 20"}
{"molecule": "O=CC[C@H](O)[C@H](O)CO", "note": "[2-Deoxy-DRibose]", "Concentration Range of Efficacy": "1 to 5"}
{"molecule": "OC[C@H]1O[C@@](CO)(O[C@H]2O[C@H](CO)[C@@H](O)[C@H](O)[C@H]2O)[C@@H](O[C@H]2O[C@H](CO)[C@@H](O)[C@H](O)[C@H]2O)[C@@H]1O", "note": "[D-Melezitose]", "Concentration Range of Efficacy": "1 to 5"}
{"molecule": "OC[C@H]1O[C@H](OCC2O[C@@H](O)[C@H](O)[C@@H](O)[C@@H]2O)[C@H](O)[C@@H](O)[C@H]1O", "note": "(stereo partly drawn) [D-Melibiose]", "Concentration Range of Efficacy": "2 to 20"}
{"molecule": "CC(O)CO", "note": "(stereo not shown) [1,2-Propanediol]", "Concentration Range of Efficacy": "2 to 20"}
{"molecule": "OC[C@H]1O[C@H](OC[C@H]2O[C@H](OC[C@H]3O[C@H](O[C@]4(CO)O[C@H](CO)[C@@H](O)[C@@H]4O)[C@H](O)[C@@H](O)[C@@H]3O)[C@H](O)[C@@H](O)[C@H]2O)[C@H](O)[C@@H](O)[C@H]1O", "note": "[Stachyose]", "Concentration Range of Efficacy": "1 to 5"}
{"molecule": "N[C@@H](C(=O)O)[C@@H](O)[C@H](O)[C@H](O)CO", "note": "[D-Glucosaminic Acid]", "Concentration Range of Efficacy": "2 to 20"}
{"molecule": "OC[C@@H](O)C(O)[C@H](O)CO", "note": "[D-Arabitol]", "Concentration Range of Efficacy": "1 to 5"}
{"molecule": "COC1OC(CO)C(O)C(O)C1O", "note": "[α-Methyl-D-Galactoside]", "Concentration Range of Efficacy": "2 to 20"}
{"molecule": "O=P(O)(O)O[C@H]1O[C@H](CO)[C@@H](O)[C@H](O)[C@H]1O", "note": "[D-Glucose-1-Phosphate]", "Concentration Range of Efficacy": "2 to 20"}
{"molecule": "OC[C@H]1O[C@@H](O[C@H]2[C@H](O)[C@@H](O)[C@H](O)O[C@@H]2CO)[C@H](O)[C@@H](O)[C@@H]1O", "note": "[D-Cellobiose]", "Concentration Range of Efficacy": "2 to 20"}
{"molecule": "COC1OCC(O)C(O)C1O", "note": "[β-Methyl-D-Xyloside]", "Concentration Range of Efficacy": "1 to 5"}
{"molecule": "OC[C@@H](O)[C@@H](O[C@H]1O[C@H](CO)[C@@H](O)[C@H](O)[C@H]1O)[C@H](O)[C@@H](O)CO", "note": "[Maltitol]", "Concentration Range of Efficacy": "1 to 5"}
{"molecule": "COC1OC(CO)C(O)C(O)C1O", "note": "[α-Methyl-D-Mannoside]", "Concentration Range of Efficacy": "1 to 5"}
{"molecule": "OC[C@H]1O[C@@H]2O[C@H]3[C@H](O)[C@@H](O)[C@@H](O[C@H]4[C@H](O)[C@@H](O)[C@@H](O[C@H]5[C@H](O)[C@@H](O)[C@@H](O[C@H]6[C@H](O)[C@@H](O)[C@@H](O[C@H]7[C@H](O)[C@@H](O)[C@@H](O[C@H]1[C@H](O)[C@H]2O)O[C@@H]7CO)O[C@@H]6CO)O[C@@H]5CO)O[C@@H]4CO)O[C@@H]3CO", "note": "[α-Cyclodextrin]", "Concentration Range of Efficacy": "1 to 5"}
{"molecule": "CO[C@H]1O[C@H](CO)[C@@H](O)[C@H](O)[C@H]1O", "note": "[α-Methyl-D-Glucoside]", "Concentration Range of Efficacy": "1 to 5"}
{"molecule": "C[C@H](N)C(=O)N[C@@H](CCC(=O)O)C(=O)O", "note": "[Ala-Glu] (H-Ala-Glu-OH)", "Concentration Range of Efficacy": "0.1 to 1"}
{"molecule": "O=C(O)[C@H](O)[C@@H](O)C(=O)O", "note": "[L-Tartaric acid]", "Concentration Range of Efficacy": "1 to 5"}
{"molecule": "Glycogen", "Concentration Range of Efficacy": "1 to 5"}
{"molecule": "OC[C@@H](O)[C@H](O)[C@H](O)[C@@H](O)CO", "note": "[Dulcitol]", "Concentration Range of Efficacy": "2 to 20"}
{"molecule": "OC[C@H](O)C(O)[C@@H](O)CO", "note": "[L-Arabitol]", "Concentration Range of Efficacy": "1 to 5"}
{"molecule": "CO[C@@H]1O[C@H](CO)[C@@H](O)[C@H](O)[C@H]1O", "note": "[β-Methyl-D-Glucoside]", "Concentration Range of Efficacy": "2 to 20"}
